From publication PMC5218480 (PLoS ONE, 2017) come the findings set out here.

The subject of the experiment is MV-4-11 cells. As to the kind of experiment: Gene expression microarray analysis (Affymetrix PrimeView) and GSEA. Type of experiment: cell-based, human. More on the design: RFU PODN (11730768_x_at) / Fold change /veh PODN (11730768_x_at) / RFU LINC00158 (11744669_a_at) / Fold change /veh LINC00158 (11744669_a_at) / RFU DUSP10 (11751237_a_at) / Fold change /veh DUSP10 (11751237_a_at) / RFU ID3 (11757404_x_at) / Fold change /veh ID3 (11757404_x_at) / RFU PLEKHG5 (11737974_s_at) / Fold change /veh PLEKHG5 (11737974_s_at) / RFU LRRC4B (11730491_at) / Fold change /veh LRRC4B (11730491_at) / RFU GIMAP4 (11747438_a_at) / Fold change /veh GIMAP4 (11747438_a_at) / RFU KRT8 (11758183_x_at) / Fold change /veh KRT8 (11758183_x_at) / RFU CNN1 (11734310_a_at) / Fold change /veh CNN1 (11734310_a_at) / RFU VPS37D (11726825_at) / Fold change /veh VPS37D (11726825_at) / RFU C10orf10 (11716522_x_at) / Fold change /veh C10orf10 (11716522_x_at) / RFU KIR2DL2 /// KIR2DL4 /// KIR2DL5A /// KIR2DL5B /// KIR2DS1 /// KIR2DS2 /// KIR2DS3 /// KIR2DS4 /// KIR3DL3 /// KIR3DL3 /// KIR3DS1 (11738374_at) / Fold change /veh KIR2DL2 /// KIR2DL4 /// KIR2DL5A /// KIR2DL5B /// KIR2DS1 /// KIR2DS2 /// KIR2DS3 /// KIR2DS4 /// KIR3DL3 /// KIR3DL3 /// KIR3DS1 (11738374_at) / RFU C1QL1 (11718748_at) / Fold change /veh C1QL1 (11718748_at) / RFU TMPRSS4 (11747572_a_at) / Fold change /veh TMPRSS4 (11747572_a_at) / RFU HAMP (11756126_x_at) / Fold change /veh HAMP (11756126_x_at) / RFU RNFT2 (11725882_a_at) / Fold change /veh RNFT2 (11725882_a_at) / RFU NR4A2 (11747474_a_at) / Fold change /veh NR4A2 (11747474_a_at) / RFU ABCC12 (11746883_a_at) / Fold change /veh ABCC12 (11746883_a_at) / RFU TMEM136 (11760407_x_at) / Fold change /veh TMEM136 (11760407_x_at) / RFU CLDN22 /// WWC2 (11732394_at) / Fold change /veh CLDN22 /// WWC2 (11732394_at) / RFU HLA-DPB1 (11760878_x_at) / Fold change /veh HLA-DPB1 (11760878_x_at) / RFU SPINT1 (11716480_a_at) / Fold change /veh SPINT1 (11716480_a_at) / RFU GAP43 (11754022_s_at) / Fold change /veh GAP43 (11754022_s_at) / RFU A4GNT (11735810_at) / Fold change /veh A4GNT (11735810_at) / RFU PRB3 (11715151_x_at) / Fold change /veh PRB3 (11715151_x_at) / RFU TUBB4B (11761932_at) / Fold change /veh TUBB4B (11761932_at) / RFU CAPN14 (11732068_a_at) / Fold change /veh CAPN14 (11732068_a_at) / RFU TMCC2 (11721928_a_at) / Fold change /veh TMCC2 (11721928_a_at) / RFU IRGQ (11745062_a_at) / Fold change /veh IRGQ (11745062_a_at) / RFU FAM174B (11720279_a_at) / Fold change /veh FAM174B (11720279_a_at) / RFU TMPRSS4 (11748680_a_at) / Fold change /veh TMPRSS4 (11748680_a_at) / RFU FAM212B (11763350_a_at) / Fold change /veh FAM212B (11763350_a_at) / RFU PLEKHG5 (11743358_a_at) / Fold change /veh PLEKHG5 (11743358_a_at) / RFU ZSCAN30 (11745921_a_at) / Fold change /veh ZSCAN30 (11745921_a_at) / RFU CMKLR1 (11741424_a_at) / Fold change /veh CMKLR1 (11741424_a_at) / RFU LOC101060620 /// MAPK8IP1 (11723275_at) / Fold change /veh LOC101060620 /// MAPK8IP1 (11723275_at) / RFU SPTSSB (11747773_x_at) / Fold change /veh SPTSSB (11747773_x_at) / RFU PRSS12 (11739890_at) / Fold change /veh PRSS12 (11739890_at) / RFU BIN1 (11741810_x_at) / Fold change /veh BIN1 (11741810_x_at) / RFU WNT11 (11732464_a_at) / Fold change /veh WNT11 (11732464_a_at) / RFU C10orf10 (11716521_a_at) / Fold change /veh C10orf10 (11716521_a_at) / RFU C5orf56 (11738089_at) / Fold change /veh C5orf56 (11738089_at) / RFU CYB561 (11721691_x_at) / Fold change /veh CYB561 (11721691_x_at) / RFU ANKRD19P (11752326_a_at) / Fold change /veh ANKRD19P (11752326_a_at) / RFU OR2T12 /// OR2T33 /// OR2T8 (11738714_s_at) / Fold change /veh OR2T12 /// OR2T33 /// OR2T8 (11738714_s_at) / RFU VCAN (11748164_a_at) / Fold change /veh VCAN (11748164_a_at) / RFU JSRP1 (11732532_at) / Fold change /veh JSRP1 (11732532_at) / RFU KRTAP10-11 (11738290_x_at) / Fold change /veh KRTAP10-11 (11738290_x_at) / RFU MYO3A (11730013_a_at) / Fold change /veh MYO3A (11730013_a_at) / RFU EBF3 (11725865_a_at) / Fold change /veh EBF3 (11725865_a_at) / RFU CAMK2N1 (11719241_x_at) / Fold change /veh CAMK2N1 (11719241_x_at) / RFU C5orf56 (11738088_a_at) / Fold change /veh C5orf56 (11738088_a_at) / RFU OLFML3 (11715873_a_at) / Fold change /veh OLFML3 (11715873_a_at) / RFU LOC100653217 /// NTM (11731650_a_at) / Fold change /veh LOC100653217 /// NTM (11731650_a_at) / RFU MAPK11 (11762145_a_at) / Fold change /veh MAPK11 (11762145_a_at) / RFU FIZ1 (11724087_x_at) / Fold change /veh FIZ1 (11724087_x_at) / RFU OASL (11726364_x_at) / Fold change /veh OASL (11726364_x_at) / RFU SOX15 (11748057_x_at) / Fold change /veh SOX15 (11748057_x_at) / RFU CD79A (11719716_a_at) / Fold change /veh CD79A (11719716_a_at) / RFU HIST1H1D (11736915_at) / Fold change /veh HIST1H1D (11736915_at) / RFU CASKIN2 (11723855_a_at) / Fold change /veh CASKIN2 (11723855_a_at) / RFU LOC730098 (11760151_x_at) / Fold change /veh LOC730098 (11760151_x_at) / RFU OR4N2 (11742367_at) / Fold change /veh OR4N2 (11742367_at) / RFU PRRT2 (11749266_a_at) / Fold change /veh PRRT2 (11749266_a_at) / RFU SNX32 (11753110_a_at) / Fold change /veh SNX32 (11753110_a_at) / RFU CDHR5 (11726645_a_at) / Fold change /veh CDHR5 (11726645_a_at) / RFU RCAN1 (11760418_a_at) / Fold change /veh RCAN1 (11760418_a_at) / RFU FAM167A (11723789_a_at) / Fold change /veh FAM167A (11723789_a_at) / RFU FAM26E (11764081_at) / Fold change /veh FAM26E (11764081_at) / RFU ISYNA1 (11749810_s_at) / Fold change /veh ISYNA1 (11749810_s_at) / RFU ACY1 (11761880_at) / Fold change /veh ACY1 (11761880_at) / RFU 11764098_at / Fold change /veh 11764098_at / RFU SAMD14 (11745864_x_at) / Fold change /veh SAMD14 (11745864_x_at) / RFU NPB (11741838_a_at) / Fold change /veh NPB (11741838_a_at) / RFU TMPRSS6 (11731388_a_at) / Fold change /veh TMPRSS6 (11731388_a_at) / RFU KRTAP10-2 (11738614_at) / Fold change /veh KRTAP10-2 (11738614_at) / RFU ARHGAP8 /// PRR5-ARHGAP8 (11727945_x_at) / Fold change /veh ARHGAP8 /// PRR5-ARHGAP8 (11727945_x_at) / RFU KRTAP5-7 /// NADSYN1 (11734609_at) / Fold change /veh KRTAP5-7 /// NADSYN1 (11734609_at) / RFU RASL12 (11751679_a_at) / Fold change /veh RASL12 (11751679_a_at) / RFU CDKN2B (11736163_a_at) / Fold change /veh CDKN2B (11736163_a_at) / RFU PRF1 (11729649_at) / Fold change /veh PRF1 (11729649_at) / RFU, ZNF638 /// ZNF638-IT1 / Fold change vs veh, ZNF638 /// ZNF638-IT1 / RFU, PANK3 / Fold change vs veh, PANK3 / RFU, SH3YL1 / Fold change vs veh, SH3YL1 / RFU, ZEB2 / Fold change vs veh, ZEB2 / RFU, NRIP1 / Fold change vs veh, NRIP1 / RFU, PTTG1IP / Fold change vs veh, PTTG1IP / RFU, CAPN2 / Fold change vs veh, CAPN2 / RFU, MED14 / Fold change vs veh, MED14 / RFU, SNORA58 / Fold change vs veh, SNORA58 / RFU, C1orf63 / Fold change vs veh, C1orf63 / RFU, LRRFIP1 / Fold change vs veh, LRRFIP1 / RFU, NDUFAF7 / Fold change vs veh, NDUFAF7 / RFU, SLC12A2 / Fold change vs veh, SLC12A2 / RFU, IBTK / Fold change vs veh, IBTK / RFU, ESF1 / Fold change vs veh, ESF1 / Fold change vs veh, TMEM50B / RFU, TAOK1 / Fold change vs veh, TAOK1 / RFU, ACBD3 / Fold change vs veh, ACBD3 / RFU, TMA16 / Fold change vs veh, TMA16 / RFU, RWDD3 / Fold change vs veh, RWDD3 / RFU, BCAT1 / Fold change vs veh, BCAT1 / RFU, EDEM3 / Fold change vs veh, EDEM3 / RFU, TMEM33 / Fold change vs veh, TMEM33 / RFU, WDR75 / Fold change vs veh, WDR75 / RFU, AHCTF1 / Fold change vs veh, AHCTF1 / RFU, TFRC / Fold change vs veh, TFRC / RFU, ZDHHC17 / Fold change vs veh, ZDHHC17 / RFU, NOM1 / Fold change vs veh, NOM1 / RFU, ARL8B / Fold change vs veh, ARL8B / RFU, ZBTB11 / Fold change vs veh, ZBTB11 / RFU, TAMM41 / Fold change vs veh, TAMM41 / RFU, KIAA1704 /// LOC100996395 / Fold change vs veh, KIAA1704 /// LOC100996395 / RFU, ING1 / Fold change vs veh, ING1 / RFU, TRMT61B / Fold change vs veh, TRMT61B / RFU, FUBP3 / Fold change vs veh, FUBP3 / RFU, TP53 / Fold change vs veh, TP53 / RFU, TNKS2 / Fold change vs veh, TNKS2 / RFU, ZFP14 / Fold change vs veh, ZFP14 / RFU, ACTR2 / Fold change vs veh, ACTR2 / RFU, PPP3R1 / Fold change vs veh, PPP3R1 / RFU, PIK3R1 / Fold change vs veh, PIK3R1 / RFU, HNRNPA1 / Fold change vs veh, HNRNPA1 / RFU, RNF170 / Fold change vs veh, RNF170 / RFU, ZNF28 / Fold change vs veh, ZNF28 / RFU, RNGTT / Fold change vs veh, RNGTT / RFU, OGT / Fold change vs veh, OGT / RFU, BRD1 / Fold change vs veh, BRD1 / RFU, MARS / Fold change vs veh, MARS / RFU, ZNF655 / Fold change vs veh, ZNF655 / RFU, FAHD1 / Fold change vs veh, FAHD1 / RFU, BDP1 / Fold change vs veh, BDP1 / RFU, LRRCC1 / Fold change vs veh, LRRCC1 / RFU, ARID1A / Fold change vs veh, ARID1A / RFU, ZNF146 / Fold change vs veh, ZNF146 / RFU, ZNF330 / Fold change vs veh, ZNF330 / RFU, GPN3 / Fold change vs veh, GPN3 / RFU, C9orf123 / Fold change vs veh, C9orf123 / RFU, N4BP2L2 / Fold change vs veh, N4BP2L2 / RFU, ARFIP1 / Fold change vs veh, ARFIP1 / RFU, FAM179B / Fold change vs veh, FAM179B / RFU, BCL10 / Fold change vs veh, BCL10 / RFU, UHRF1BP1L / Fold change vs veh, UHRF1BP1L / RFU, BET1 / Fold change vs veh, BET1 / RFU, CNOT2 / Fold change vs veh, CNOT2 / RFU, ZNF268 / Fold change vs veh, ZNF268 / Fold change vs veh, ZNF507 / RFU, DGCR2 / Fold change vs veh, DGCR2 / RFU, WDSUB1 / Fold change vs veh, WDSUB1 / Fold change vs veh, HSP90B1 /// MIR3652 / RFU, ADSS / Fold change vs veh, ADSS / RFU, GK / Fold change vs veh, GK / RFU, ZNF148 / Fold change vs veh, ZNF148 / RFU, TAF9 / Fold change vs veh, TAF9 / RFU, SLC1A5 / Fold change vs veh, SLC1A5 / RFU, SLMO2 / Fold change vs veh, SLMO2 / RFU, ABCC4 / Fold change vs veh, ABCC4 / RFU, LOC101060439 /// RAP1B / Fold change vs veh, LOC101060439 /// RAP1B / RFU, RFX7 / Fold change vs veh, RFX7 / RFU, GTPBP10 / Fold change vs veh, GTPBP10 / RFU, CNEP1R1 / Fold change vs veh, CNEP1R1 / RFU, BIVM-ERCC5 /// ERCC5 / Fold change vs veh, BIVM-ERCC5 /// ERCC5 / RFU, ILF3 / Fold change vs veh, ILF3 / RFU 11762660_at / Fold change /veh 11762660_at / RFU VCAN (11757783_s_at) / Fold change /veh VCAN (11757783_s_at) / RFU DDX43 (11728927_at) / Fold change /veh DDX43 (11728927_at) / RFU KRT8 (11758188_x_at) / Fold change /veh KRT8 (11758188_x_at) / RFU NKD1 (11759106_at) / Fold change /veh NKD1 (11759106_at) / RFU SRD5A1 (11742802_a_at) / Fold change /veh SRD5A1 (11742802_a_at) / RFU TPSAB1 /// TPSB2 (11721975_s_at) / Fold change /veh TPSAB1 /// TPSB2 (11721975_s_at) / RFU GSTM3 (11746129_a_at) / Fold change /veh GSTM3 (11746129_a_at) / RFU IL23R (11737362_x_at) / Fold change /veh IL23R (11737362_x_at) / RFU TMEM51 (11727254_a_at) / Fold change /veh TMEM51 (11727254_a_at) / RFU PIWIL2 (11732686_x_at) / Fold change /veh PIWIL2 (11732686_x_at) / RFU ORM1 (11744905_x_at) / Fold change /veh ORM1 (11744905_x_at) / RFU CCDC152 (11743942_at) / Fold change /veh CCDC152 (11743942_at) / RFU ECM1 (11717891_a_at) / Fold change /veh ECM1 (11717891_a_at) / RFU IL23R (11748794_a_at) / Fold change /veh IL23R (11748794_a_at) / RFU TNFAIP8L3 (11732012_x_at) / Fold change /veh TNFAIP8L3 (11732012_x_at) / RFU MBOAT4 (11741988_at) / Fold change /veh MBOAT4 (11741988_at) / RFU 11764193_at / Fold change /veh 11764193_at / RFU TMEM53 (11763286_at) / Fold change /veh TMEM53 (11763286_at) / RFU MAGEB2 (11727129_at) / Fold change /veh MAGEB2 (11727129_at) / RFU TMEM200A (11744735_a_at) / Fold change /veh TMEM200A (11744735_a_at) / RFU CCDC152 (11751479_a_at) / Fold change /veh CCDC152 (11751479_a_at) / RFU FAM211A (11726209_a_at) / Fold change /veh FAM211A (11726209_a_at) / RFU RGS16 (11746705_a_at) / Fold change /veh RGS16 (11746705_a_at) / RFU VCAN (11755009_s_at) / Fold change /veh VCAN (11755009_s_at) / RFU RHOB (11743442_s_at) / Fold change /veh RHOB (11743442_s_at) / RFU RGS16 (11720943_a_at) / Fold change /veh RGS16 (11720943_a_at) / RFU RGS16 (11720944_at) / Fold change /veh RGS16 (11720944_at) / RFU, VPS4B / Fold change vs veh, VPS4B / RFU, CREB1 / Fold change vs veh, CREB1 / RFU, DNAJC13 / Fold change vs veh, DNAJC13 / RFU, GNAQ / Fold change vs veh, GNAQ / RFU, CDK5R1 / Fold change vs veh, CDK5R1 / RFU, ZRANB3 / Fold change vs veh, ZRANB3 / RFU, CUL4A / Fold change vs veh, CUL4A / RFU, CCNY / Fold change vs veh, CCNY / RFU, UFL1 / Fold change vs veh, UFL1 / RFU, COG3 / Fold change vs veh, COG3 / RFU, DIAPH2 / Fold change vs veh, DIAPH2 / RFU, SKA2 / Fold change vs veh, SKA2 / RFU, AFF3 / Fold change vs veh, AFF3 / RFU, LMF1 / Fold change vs veh, LMF1 / RFU, IPO11 / Fold change vs veh, IPO11 / RFU, DFFB / Fold change vs veh, DFFB / RFU, FOXP1 / Fold change vs veh, FOXP1 / RFU, CARD8 / Fold change vs veh, CARD8 / RFU, STRN3 / Fold change vs veh, STRN3 / RFU, ADK / Fold change vs veh, ADK / RFU, RASSF2 / Fold change vs veh, RASSF2 / RFU, WIPF1 / Fold change vs veh, WIPF1 / RFU, LARP1B / Fold change vs veh, LARP1B / RFU, RASA1 / Fold change vs veh, RASA1 / RFU, RB1 / Fold change vs veh, RB1 / RFU, PPFIA1 / Fold change vs veh, PPFIA1 / RFU, MAT2A / Fold change vs veh, MAT2A / RFU, CCT5 / Fold change vs veh, CCT5 / RFU, WDR92 / Fold change vs veh, WDR92 / RFU, CUX1 / Fold change vs veh, CUX1 / RFU, TTC7A / Fold change vs veh, TTC7A / RFU, TMEM135 / Fold change vs veh, TMEM135 / RFU, DEPTOR / Fold change vs veh, DEPTOR / RFU, CPM / Fold change vs veh, CPM / RFU, DNAJB6 / Fold change vs veh, DNAJB6 / RFU, CACNA2D3 / Fold change vs veh, CACNA2D3 / RFU, DTX4 / Fold change vs veh, DTX4 / RFU, TFCP2 / Fold change vs veh, TFCP2 / RFU, GMCL1 /// GMCL1P1 / Fold change vs veh, GMCL1 /// GMCL1P1 / RFU, AEBP2 / Fold change vs veh, AEBP2 / RFU, SNHG1 /// SNORD22 /// SNORD25 /// SNORD26 /// SNORD27 /// SNORD28 /// SNORD29 /// SNORD31 / Fold change vs veh, SNHG1 /// SNORD22 /// SNORD25 /// SNORD26 /// SNORD27 /// SNORD28 /// SNORD29 /// SNORD31 / Fold change (Aza/veh), C12orf56 (ProbeSet 11735607_a_at) / Fold change (ACY-1035/veh), C12orf56 (ProbeSet 11735607_a_at) / Fold change (Aza/veh), FGFR1OP (ProbeSet 11751329_s_at) / Fold change (ACY-1035/veh), FGFR1OP (ProbeSet 11751329_s_at) / Fold change (Aza/veh), VPS36 (ProbeSet 11739960_a_at) / Fold change (ACY-1035/veh), VPS36 (ProbeSet 11739960_a_at) / RFU SYPL1 (11715823_x_at) / Fold change /veh SYPL1 (11715823_x_at) / RFU IGFBP7 (11715501_s_at) / Fold change /veh IGFBP7 (11715501_s_at) / RFU REEP3 (11722064_at) / Fold change /veh REEP3 (11722064_at) / RFU IGLL1 (11728026_x_at) / Fold change /veh IGLL1 (11728026_x_at): dose or concentration left out as unconfirmed. The following applies: ProbeSet 11719817_x_at; LIST B.

Regarding `Nc1ncn([C@@H]2O[C@H](CO)[C@@H](O)[C@H]2O)c(=O)n1` [azacitidine], the “RFU, BET1” value is on record as 81.04 RFU.
